What all share (assay): NCI anticancer screen, dose series, 48 h
Test [1] deals with HT29 colon.
The subject of test [2] is NCI-H522 lung.
The subject of test [3] is OVCAR-3 ovarian.
Test [4] concerns HS 578T breast.
Test [5] relates to UACC-62 melanoma.
Test [6] concerns K-562 leukemia.
The subject of test [7] is SF-268 CNS.
For test [8], the system named is NCI-H23 lung.
Test [9] deals with OVCAR-8 ovarian.
For test [10], the system named is UACC-257 melanoma.

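Compound exposure: 48 hours, 5 concentrations, 96-well plates. At the TGI there is no net growth.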 Where a SMILES comes first, the peptide text is derived from it. The star is where a group is joined. Fmoc = O=C(OCC1c2ccccc2-c2ccccc21)*; Boc = CC(C)(C)OC(=O)* Some results are limits rather than exact numbers.

The results in this text go back to PubChem BioAssay (NCI).

Consider `O=C1C=C(OCCCCl)C(=O)c2c(O)ccc(O)c21`, for which the TGI in test [1] worked out at 1.31 µM; in [2], 4.26 µM; in test [3] it was 1.38 µM; in test [4], 6.56 µM; in [5], 0.882 µM; in [6] it was 5.86 µM. The TGI in test [7] is 3.16 µM; in test [8], 0.479 µM; in test [9], 7.59 µM; in [10], 0.358 µM.
For the molecule `CCOC(=O)c1c2c(c(O)c3ccccc3c(O)n(Cc3ccccc3)c1C)C(=O)C=CC2=O`, the TGI in [1] was above 100 µM; in [2] it was 92.7 µM; in test [3], above 100 µM; in test [4], above 100 µM; in [5] it was above 100 µM; in test [6], above 100 µM. The TGI in test [7], in [8], in [9] and in test [10] was above 100 µM throughout.
`CC(OC(=O)C(CC(=O)OC(C)(C)C)NC(=O)OC(C)(C)C)C(=O)OCc1ccccc1` (stereo not given): the TGI in test [1], in [2], in test [3], in test [4], in test [5] and in [6] was above 100 µM in each case. Also, the TGI in [7], in test [8], in test [9] and in test [10] was above 100 µM throughout.
For `OCCOc1ccccc2cccc1-2`, the TGI in [1], in [2], in test [3], in test [4], in test [5] and in [6] was above 100 µM each time. The TGI in test [7], in test [8], in test [9] and in test [10] was above 100 µM throughout.
On to `CC(C)(C)OC(=O)NCCCCC(NC(=O)C(Cc1c[nH]c2ccccc12)NC(=O)OCC1c2ccccc2-c2ccccc21)C(=O)N1CCCC1C(=O)NCC(N)=O` (stereo not given) (Fmoc-WK(Boc)PG-NH2; configuration not given here), for which the TGI in test [1], in test [2], in test [3], in test [4], in [5] and in test [6] was above 100 µM in each case. In addition, the TGI in test [7], in [8], in test [9] and in [10] was above 100 µM each time.
On to `CC1C(OC2O[C@@H]3O[C@@]4(C)CC[C@H]5[C@H](C)CC[C@@H](C2C)[C@@]35O4)O[C@@H]2O[C@@]3(C)CC[C@H]4[C@H](C)CC[C@@H]1[C@@]24O3` (stereo not given in full), for which the TGI in test [1], in test [2], in test [3], in test [4], in [5] and in test [6] was above 50 µM each time. In addition, the TGI in test [7], in test [8], in test [9] and in test [10] was above 50 µM throughout.
Regarding `C[N+](C)(C)CC(=O)N/N=C/c1ccncc1`, the TGI in test [1], in test [2], in test [3], in test [4], in test [5] and in test [6] was above 100 µM throughout. For the same molecule, the TGI in test [7], in test [8], in test [9] and in test [10] was above 100 µM throughout.
In the case of `O=C(O)CCCc1ccc2ccccc2c1`, the TGI in [1], in test [2], in test [3], in [4], in test [5] and in [6] was above 100 µM each time. For the same molecule, the TGI in test [7], in test [8], in [9] and in test [10] was above 100 µM each time.
With `COc1cc(-c2[o+]c3cc(O)cc(O)c3cc2O)cc(O)c1O`, the TGI in [1], in test [2], in [3], in [4], in test [5] and in [6] was above 100 µM in each case. The TGI in test [7], in test [8], in test [9] and in test [10] was above 100 µM in each case.
In the case of `O=C(C/C(=N/O)c1cc(-c2ccccc2)no1)c1ccccc1`, the TGI was above 100 µM in [1]; 37.2 µM in [2]; 41.9 µM in test [3]; 66.6 µM in [4]; above 100 µM in test [5]; above 100 µM in [6]. Moreover, the TGI is 42.5 µM in test [7], 43.3 µM in [8], 40.3 µM in test [9] and above 100 µM in [10].
Take `COc1ccc2cc(-c3nc(N)nc(N4N=C(C)CC4(C)C)n3)c(=N)oc2c1`: the TGI came out at 31.7 µM in test [1]; 27.8 µM in test [2]; 28.5 µM in [3]; 66.4 µM in test [4]; 36.3 µM in test [5]; 40.2 µM in test [6]. Besides, the TGI in test [7] is 33.8 µM; in [8], 31.8 µM; in test [9], 49.8 µM; in test [10] it was 95.7 µM.
For the molecule `COc1ccc(/C=C2\CCC/C(=C\c3ccc(O)c(CN4CCCCC4)c3)C2=O)cc1`, the TGI was 19.9 µM in test [1]; 19.1 µM in [2]; 46.3 µM in [3]; above 100 µM in [4]; 36.1 µM in [5]; above 100 µM in test [6]. Further, the TGI turned out to be 13.1 µM in test [7], 41.3 µM in test [8], 13.6 µM in test [9] and 40.4 µM in test [10].
`CCOC(=O)C(=O)/C(=C/N1C(=O)CC(=O)NC1=S)C(=O)OCC`: the TGI was above 100 µM in test [1]; above 100 µM in test [2]; above 60.2 µM in test [3]; above 100 µM in [4]; above 100 µM in test [5]; above 100 µM in test [6]. Also, the TGI in test [7], in [8], in [9] and in test [10] was above 100 µM each time.
